Common to all, as to format: physicochemical
Data set [1] can be described thus: Intrinsic dissolution rate. From the text: (§1) Furthermore, although all the above mentioned salt forms are characterized by a low solubility over almost the whole pH range, the chloride salt form presents the advantage of a better dissolution rate.
The nature of data set [2]: Thermal gravimetry (TG) loss of weight. As to conditions: for loss of weight as measured by thermal gravimetry (TG): crystalline salt forms. On the procedure: The crystalline form of the monohydrochloride salt according to the invention is further characterised by a weight loss of ca. 1.6-1.8% water up to 130° C., as determined by Thermal […]). Under standard conditions, the monohydrochloride salt form of the compound according to the invention is present in the form of the hemihydrate, from which water escapes at a temperature of about 130° C. The TG diagram is also depicted in FIG. 1. For example, the sodium and tartrate salt forms have less good crystallinity properties, which affects the stability of the drug substance. […] Thus, the chloride, succinate and bromide salt forms have unexpectedly better crystalline properties for pharmaceutical development than the sodium and tartrate salt forms.

Data set [3] in a line: Solubility in aqueous media over the pH range. As to conditions: over a wide pH-range.
From the text: as §1

The nature of data set [4]: Hygroscopicity of the salt forms. As to conditions: for hygroscopicity: in words, judged from TG loss of weight. The source says:
The monohydrochloride salt form of the compound according to the invention, namely 4-[(Z)-[[4-[(dimethylamino)methyl]phenyl]amino](6-fluoro-1,2-dihydro-2-oxo-3H-indol-3-ylidene)methyl]-benzenepropanoic acid monohydrochloride, is a yellow crystalline powder with irregular shaped crystals. […] For example, the sodium and tartrate salt forms have less good crystallinity properties, which affects the stability of the drug substance. […] Thus, the chloride, succinate and bromide salt forms have unexpectedly better crystalline properties for pharmaceutical development than the sodium and tartrate salt forms.

Data set [5] in a line: Crystallinity after intensive milling or compression. The source says:
The monohydrochloride salt form of the compound according to the invention, namely 4-[(Z)-[[4-[(dimethylamino)methyl]phenyl]amino](6-fluoro-1,2-dihydro-2-oxo-3H-indol-3-ylidene)methyl]-benzenepropanoic acid monohydrochloride, is a yellow crystalline powder with irregular shaped crystals.

Entries after “also recorded” stand apart in the source; their conditions may differ.

With `CN(C)Cc1ccc(N/C(=C2\C(=O)Nc3cc(F)ccc32)c2ccc(CCC(=O)O)cc2)cc1` [bromide, 4-[(Z)-[[4-[(dimethylamino)methyl]phenyl]amino](6-fluoro-1,2-dihydro-2-oxo-3H-indol-3-ylidene)methyl]-benzenepropanoic acid], the intrinsic dissolution rate result in data set [1] is listed as “very slow”. The “loss of weight as measured by thermal gravimetry (TG)” value (“loss of weight as measured” for short) in data set [2] is recorded as “ca. 2.2%”. Also, the “solubility in aqueous media” value in data set [3] was “rather low solubility”. The hygroscopicity result in data set [4] is reported as “slight hygroscopicity”.
Take `CN(C)Cc1ccc(N/C(=C2\C(=O)Nc3cc(F)ccc32)c2ccc(CCC(=O)O)cc2)cc1.Cl` [monohydrochloride, 4-[(Z)-[[4-[(dimethylamino)methyl]phenyl]amino](6-fluoro-1,2-dihydro-2-oxo-3H-indol-3-ylidene)methyl]-benzenepropanoic acid monohydrochloride]: in data set [1], the intrinsic dissolution rate entry was “acceptable fast”. In data set [5], the change in crystallinity entry was “No significant change in crystallinity”. The “loss of weight as measured” value in data set [2] was “ca. 1.7%”. In data set [2] (up to 130° C., crystalline form), the “weight loss of water, determined by Thermal Gravimetry (TG)” value is reported as 1.6-1.8%. Further, in data set [3], the “solubility in aqueous media” value is reported as “rather low solubility”. For the same compound, the hygroscopicity result in data set [4] (listed as monohydrochloride salt form, monohydrochloride) is recorded as “slightly hygroscopic; also recorded: slight hygroscopicity”; in data set [4] (monohydrochloride) it was “slight hygroscopicity”. Further, the “change in crystal modification” value in data set [4] (on moisture uptake (slightly hygroscopic)) is “no change in crystal modification is observed”.
Take `CN(C)Cc1ccc(N/C(=C2\C(=O)Nc3cc(F)ccc32)c2ccc(CCC(=O)O)cc2)cc1` [sodium, 4-[(Z)-[[4-[(dimethylamino)methyl]phenyl]amino](6-fluoro-1,2-dihydro-2-oxo-3H-indol-3-ylidene)methyl]-benzenepropanoic acid]: the “loss of weight as measured” value in data set [2] is “ca. 15%”. Further, in data set [4], the hygroscopicity entry is reported as “strong hygroscopicity”.
For `CN(C)Cc1ccc(N/C(=C2\C(=O)Nc3cc(F)ccc32)c2ccc(CCC(=O)O)cc2)cc1` [succinate, 4-[(Z)-[[4-[(dimethylamino)methyl]phenyl]amino](6-fluoro-1,2-dihydro-2-oxo-3H-indol-3-ylidene)methyl]-benzenepropanoic acid], in data set [1], the intrinsic dissolution rate result is “very slow”. Moreover, in data set [2], the “loss of weight as measured” value is listed as “ca. 1.5%”. In addition, in data set [3], the “solubility in aqueous media” value is given as “rather low solubility”. Besides, the hygroscopicity result in data set [4] is “slight hygroscopicity”.
For the compound `CN(C)Cc1ccc(N/C(=C2\C(=O)Nc3cc(F)ccc32)c2ccc(CCC(=O)O)cc2)cc1` [tartrate, 4-[(Z)-[[4-[(dimethylamino)methyl]phenyl]amino](6-fluoro-1,2-dihydro-2-oxo-3H-indol-3-ylidene)methyl]-benzenepropanoic acid], the “loss of weight as measured” value in data set [2] was “ca. 4.3%”. Moreover, the hygroscopicity result in data set [4] is “strong hygroscopicity”.

The record behind these values is patent publication US20110130437A1, “SALT FORMS OF A 6-FLUORO-1,2-DIHYDRO-2-OXO-3H-INDOL-3-YLIDENE DERIVATIVE, PROCESS FOR THEIR MANUFACTURE AND PHARMACEUTICAL COMPOSITIONS CONTAINING SAME” (BOEHRINGER INGELHEIM INTERNATIONAL GMBH, priority 2008, published 2011).
